Here are results for 23 compounds from patent US5324747A, “N-substituted anilines, inhibitors of phospholipases A2” (Hoffmann-La Roche Inc., priority 1992, dated 1994).

As a reminder, the IC50 is the midpoint of a concentration-inhibition curve. For orientation: inhibition means the change of the read-out against control, counted positive when it falls.

In one assay the test system is PLA2 Rat Paw Edema. The assay is described as follows: Phospholipase A2 Rat Paw Edema. Format: in vivo, Lewis rats. To be noted: Rattus norvegicus; 2 hr; 30 mg/kg; read-out: % Inhib of PLA2 Rat Paw Edema 2 hr (30 mg/kg). The procedure:
Phospholipase A2 Rat Paw Edema
Representation compounds of the invention were tested in rats to determine their ability to inhibit the acute inflammatory response induced by the injection of snake venom phospholipase A2. Test compounds are administered intraperitoneally or orally to groups of seven Lewis rats (≈200 gm) 1 hr prior to phospholipase A2 administration. The test compounds are dissolved in dimethyl sulfoxide for intraperitoneal administration and dissolved or suspended in Labrafil M-1944CS for oral administration. At 0 hr, 5 ug (10 units) of purified phospholipase A2 from Naja naja venom (Sigma Chem. Co.) dissolved in 0.1 mL of pyrogen free saline is injected subplantarly into the right hind paw to elicit the inflammatory response. The volume (in mL) of the right hind paw is measured by immersion of the paw to the level of the lateral malleolus in an aqueous plethysmometer immediately prior to the injection of phospholipase A2 and then at 0.5, 2 and 4 hr after phospholipase A2 injection. The paw edema is calculated by subtracting the zero time reading from the readings taken after injection. The percent change of the edema volume from the vehicle treated control is calculated to determine the activity of the test compound. Statistical analysis of the mean paw edema values of the control versus the treated groups is performed using Student's t-test. Significance of changes from mean value for vehicle-treated animals (*p<0.05, **p<0.01, ***p<0.001, ns/not significant).

The subject of assay [1] is Croton Oil Mouse Ear Edema. The assay is described as follows: Croton Oil Mouse Ear Edema Test. The class given is in vivo, CD-1 mice. The note with it: topical, coapplied, 6 hours.
Protocol: Twenty five μl of a 1% croton oil solution [dissolved in a mixture of pyridine/water/diethyl ether at a ratio of 5/20/75 (croton oil vehicle)] are applied to the outer side of the right ear of 3-4 week old made CD-1 mice (8 animals per group). The test compounds are dissolved directly in the 1% croton oil solution at various concentrations and coapplied. Control animals receive 25 μl of croton oil vehicle on the right ear. Biopsy punches are removed at 6 hours from the right ear of the animals using a 6 mm skin trephine (Roboz, Washington, D.C.) and the wet weight of the ear punches is determined. The weight of the biopsy punches is a measure of ear inflammation, primarily edema. The data are expressed as percent inhibition relative to control groups.
A further assay addresses T1, HSF-PLA2 (Homo sapiens, UniProt P14555).
T1 construct: extracellular enzyme obtained from human synovial fluid (HSF-PLA2); from tissue; host or cells: pooled human synovial fluid, added at 0.1% (v/v)
T1 sequence (P14555 21-144): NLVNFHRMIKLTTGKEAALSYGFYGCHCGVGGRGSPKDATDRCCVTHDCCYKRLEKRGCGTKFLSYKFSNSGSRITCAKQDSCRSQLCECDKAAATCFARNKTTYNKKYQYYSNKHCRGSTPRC
The assay is described as follows: Assay for Inhibition of HSF-PLA2 In Vitro. The class given is biochemical. To be noted: for IC50: read-out: Inhib of HSF-PLA2 IC50; for inhibition at 10 µM / inhibition at 1 µM / inhibition at 5 µM: read-out: Inhib of HSF-PLA2, % inhibition. As for the experimental part:
Assay for Inhibition of HSF-PLA2 In Vitro
The PLA2 used in this test is the extracellular enzyme obtained from human synovial fluid (HSF-PLA2).
The optimal conditions which were developed for the assay of HSF-PLA2 inhibitors are summarized as follows. […] The reaction was initiated by the addition of HSF-PLA2 and duplicate samples of the mixture were incubated in 13×100 mm glass tubes with shaking for 30 minutes at 37° C. […] The extraction of lipids from the stopped reaction mixture was conducted by the further additions of […] of chloroform and 1 ml of water with mixing. After centrifuging, the lower chloroform phase was transferred to smaller glass tubes and the solvent was evaporated to dryness with a nitrogen stream. The extracted lipid residue was redissolved in 50 μl of a solution containing carrier oleic acid (0.2 mg/ml) of chloroform-methanol [9 to 1, v/v]). The whole lipid extract was applied to a preactivated (30 minutes at 110° C.) silica gel-impregnated glass fiber thin layer chromatography sheet (ITLC type SG sheet from Gelman Sciences, Inc., Ann Arbor, Mich.) using hexane-acetic acid (100 to 1, v/v) as the developing solvent. This TLC system rapidly (6 minutes) resolved the enzymatically released product, ^14 C-oleic acid, from the unreacted ^14 C-phospholipid substrate. The unsaturated lipids were located on the chromatogram by a brief exposure to iodine vapor. […] A control incubation of substrate in the absence of HSF-PLA2 was performed in each experiment.

On to `COC(=O)CCCCCCCCCCOc1cc(OCCCCCCCCCCC(=O)OC)cc(N(CC(=O)O)CC(=O)O)c1` [Example 6j, N-(carboxymethyl)-N-[3,5-bis[(11-methoxy-11-oxoundecyl)oxy]phenyl]glycine], for which the inhibition in vivo at 30 mg/kg in the assay with PLA2 Rat Paw Edema stood at 0%. In addition, the “% Inhib of Croton Oil Mouse Ear Edema (1 mg)” value (shortened to “% Inhib”) in assay [1] turned out to be 66%. The half-inhibitory concentration (IC50) on HSF-PLA2 was 300 nM.

For the compound `O=C(O)CCCCCCCCCCOc1cc(OCCCCCCCCCCC(=O)O)cc(N(CC(=O)O)CC(=O)O)c1` [Example 6k, N-(carboxymethyl)-N-[3,5-bis[(11-hydroxy-11-oxoundecyl)oxy]phenyl]glycine], the inhibition in vivo at 30 mg/kg with PLA2 Rat Paw Edema was found to be 0%. Further, the “% Inhib” value in assay [1] worked out at 16%. The inhibition at 10 µM at HSF-PLA2 was found to be 35%.

Take `O=C(O)CN(CC(=O)O)c1cc(OCCCOc2ccccc2-c2ccccc2)cc(OCCCOc2ccccc2-c2ccccc2)c1` [Example 6l]: in the assay on PLA2 Rat Paw Edema, the inhibition in vivo at 30 mg/kg worked out at 0%. In addition, the “% Inhib” value in assay [1] was determined as 30%. Besides, the IC50 at HSF-PLA2 is 420 nM.

Regarding `CCCCCCCCCCOC(=O)c1cc(C(=O)OCCCCCCCCCC)cc(N(CC(=O)O)CC(=O)O)c1` [Example 6v, N-(carboxymethyl)-N-[3,5-bis[(decyloxy)carbonyl]phenyl]glycine], the inhibition in vivo at 30 mg/kg in the assay with PLA2 Rat Paw Edema amounted to 9%. For the same compound, the “% Inhib” value in assay [1] came out at 80%. For the same compound, the inhibition at 1 µM at HSF-PLA2 is 73%.

Take `CCCCCCCCCCNC(=O)c1cc(NCC(=O)O)cc(C(=O)NCCCCCCCCCC)c1` [Example 12, N-[3,5-Bis[(decylamino)carbonyl]phenyl]glycine]: the inhibition in vivo at 30 mg/kg in the assay on PLA2 Rat Paw Edema was found to be 34%. The “% Inhib” value in assay [1] worked out at 70%. The IC50 at HSF-PLA2 is 5200 nM.

Consider `CCCCCCCCCCCCCCOC(=O)c1cc(C(=O)OCCCCCCCCCCCCCC)cc(N(CC(=O)O)CC(=O)O)c1` [Example 25, N-(Carboxymethyl)-N-[3,5-bis[(tetradecyloxy)carbonyl]phenyl]glycine], for which the inhibition in vivo at 30 mg/kg in the assay on PLA2 Rat Paw Edema amounted to 17%. Further, the “% Inhib” value in assay [1] stood at 62%. Also, on HSF-PLA2, the inhibition at 1 µM was 48%.

Take `CCCCCCCCCCOc1cc(OCCCCCCCCCC)cc(N2CC(=O)OC(=O)C2)c1` [Example 30, 4-[3,5-bis(decyloxy)phenyl]2,6-morpholinedione]: in the assay with PLA2 Rat Paw Edema, the inhibition in vivo at 30 mg/kg turned out to be 91%. In addition, the “% Inhib” value in assay [1] came to 63%. Further, the IC50 on HSF-PLA2 came out at 470 nM.

With `CCCCCCCCCCOc1cc(OCCCCCCCCCC)cc(N(CC(=O)O)CC(=O)OC)c1` [Example 31, N-(2-Methoxy-2-oxoethyl)-N-[3,5-bis(decyloxy)phenyl]glycine], the inhibition in vivo at 30 mg/kg in the assay with PLA2 Rat Paw Edema amounted to 21%. Further, the “% Inhib” value in assay [1] was 50%.

With `CCCCCCCCCCOc1cc(OCCCCCCCCCC)cc(N(CC(N)=O)CC(=O)O)c1.N` [Example 32, N-(Carbamoylmethyl)-N-[3,5-bis(decyloxy)phenyl]glycine ammonium salt], the inhibition in vivo at 30 mg/kg in the assay on PLA2 Rat Paw Edema amounted to 23%. Besides, in assay [1], the “% Inhib” value stood at 54%. In addition, the inhibition at 1 µM on HSF-PLA2 is 48%.

Consider `CCCCCCCCCCOc1cc(OCCCCCCCCCC)cc(N(CC(=O)O)CC(=O)OCCN(CC)CC)c1.Cl` [Example 33, N-(2-Diethylaminoethoxy-2-oxoethyl)-N-[3,5-bis(decyloxy)phenyl]glycine monohydrochloride salt], for which the inhibition in vivo at 30 mg/kg in the assay on PLA2 Rat Paw Edema came out at 15%. The “% Inhib” value in assay [1] is recorded as 25%. The inhibition at 1 µM at HSF-PLA2 was -5%.

Take `CCCCCCCCCCCCCCCCCC(=O)Oc1cccc(N(CC(=O)O)CC(=O)O)c1` [Example 36b]: in the assay on PLA2 Rat Paw Edema, the inhibition in vivo at 30 mg/kg is 0%. The “% Inhib” value in assay [1] came out at 61%. Besides, the IC50 at HSF-PLA2 came out at 200 nM.

For `CCCCCCCCCCCCCCCCCNC(=O)Oc1cccc(N(CC(=O)O)CC(=O)O)c1` [Example 36c, N-(carboxymethyl)-N-[3-[[(heptadecylamino)carbonyl]oxy]phenyl]glycine], the inhibition in vivo at 30 mg/kg with PLA2 Rat Paw Edema stood at 0%. The “% Inhib” value in assay [1] was 0%. The 50% inhibitory concentration (IC50) on HSF-PLA2 worked out at 1000 nM.

Take `CCCCCCCCCCCCCCCCCCNC(=O)Nc1cccc(N(CC(=O)O)CC(=O)O)c1` [Example 36e, N-(carboxymethyl)-N-[3-[[(octadecylamino)carbonyl]amino]phenyl]glycine]: the inhibition in vivo at 30 mg/kg in the assay with PLA2 Rat Paw Edema amounted to 30%. Also, the “% Inhib” value in assay [1] was 31%. On HSF-PLA2, the inhibition at 5 µM was determined as 74%.

On to `CCCCCCCCCCCCCCCCCCNC(=O)c1cccc(N(CC(=O)O)CC(=O)O)c1` [Example 42], for which the inhibition in vivo at 30 mg/kg in the assay with PLA2 Rat Paw Edema came out at 38%. In addition, the “% Inhib” value in assay [1] was 0%. Besides, the half-inhibitory concentration (IC50) on HSF-PLA2 was 400 nM.

Turning to `CCCCCCCCCCCCCCCCCC(=O)Nc1cccc(N(CC(=O)O)CC(=O)O)c1` [Example 46], the inhibition in vivo at 30 mg/kg in the assay with PLA2 Rat Paw Edema came to 44%. Further, the “% Inhib” value in assay [1] was determined as 35%.

In the case of `CCCCCCCCCCCCCCCCCCOc1cc(OCCO)cc(N(CC(=O)O)CC(=O)O)c1` [Example 58a, N-(carboxymethyl)-N-[3-(2-hydroxyethoxy)-5-(octadecyloxy)phenyl]glycine], in the assay on PLA2 Rat Paw Edema, the inhibition in vivo at 30 mg/kg amounted to 29%. The “% Inhib” value in assay [1] is listed as 0%. Also, on HSF-PLA2, the 50% inhibitory concentration (IC50) amounted to 200 nM.

`CCCCCCCCCCCCCCCCCCOc1cc(OCC(=O)OC)cc(N(CC(=O)O)CC(=O)O)c1` [Example 58b, N-(carboxymethyl)-N-[3-(2-methoxy-2-oxoethoxy)-5-(octadecyloxy)phenyl]glycine]: the inhibition in vivo at 30 mg/kg with PLA2 Rat Paw Edema was determined as 20%. The “% Inhib” value in assay [1] is 19%. For the same compound, the inhibition at 5 µM on HSF-PLA2 turned out to be 91%.

In the case of `CCCCCCCCCCOc1cc(C(=O)OC)cc(N(CC(=O)O)CC(=O)O)c1` [Example 69c, N-(carboxymethyl)-N-[(3-methoxycarbonyl)-5-(decyloxy)phenyl]glycine], the inhibition in vivo at 30 mg/kg in the assay with PLA2 Rat Paw Edema was 1%. Further, in assay [1], the “% Inhib” value turned out to be 78%.

As to `CCCCCCCCCCCCCC(=O)Oc1ccc(N(CC(=O)O)CC(=O)O)cc1OC(=O)CCCCCCCCCCCCC` [Example 119b, N-(carboxymethyl)-N-[3,4-bis[(1-oxotetradecyl)oxy]phenyl]glycine], the “% Inhib” value in assay [1] amounted to 75%. The inhibition at 1 µM at HSF-PLA2 is 80%.

For the compound `CCCCCCCCCCCCCCCCCCNC(=O)Oc1ccc(N(CC(=O)O)CC(=O)O)cc1OC(=O)NCCCCCCCCCCCCCCCCCC` [Example 119d, N-(carboxymethyl)-N-[3,4-bis[[(octadecylamino)carbonyl]oxy]phenyl]glycine], in assay [1], the “% Inhib” value was 14%. Moreover, the inhibition at 1 µM at HSF-PLA2 was determined as 19%.

For `CCCCCCCCCCCCCCNC(=O)Oc1ccc(N(CC(=O)O)CC(=O)O)cc1OC(=O)NCCCCCCCCCCCCCC` [Example 119e, N-(carboxymethyl)-N-[3,4-bis[[(tetradecylamino)carbonyl]oxy]phenyl]glycine], the “% Inhib” value in assay [1] was 0%. Besides, the inhibition at 1 µM at HSF-PLA2 turned out to be 33%.

Consider `CCCCCCCCCCCCCCCCCCOc1cccc(NCC(=O)O)c1` [Example 125, N-[3-(Octadecyloxy)phenyl]glycine], for which the “% Inhib” value in assay [1] turned out to be 75%. Besides, the inhibition at 10 µM on HSF-PLA2 worked out at 55%.

In the case of `CCCCCCCCCCOc1cc(OCCCCCCCCCC)cc(N(CC(=O)OCC(=O)N(CCO)CCO)CC(=O)OCC(=O)N(CCO)CCO)c1` [Example 131], the inhibition in vivo at 30 mg/kg in the assay on PLA2 Rat Paw Edema came to 18%. Moreover, the “% Inhib” value in assay [1] is listed as 47%.
